Laboratory results reported in patent publication US20250230193A1, “CYCLIC COMPOUND HAVING SELECTIVE KRAS INHIBITORY EFFECT ON HRAS AND NRAS” (CHUGAI SEIYAKU KABUSHIKI KAISHA, priority 2022, published 2025).

Legend:
[1] = target: GDP-bound HRAS wild-type protein (Homo sapiens, UniProt P01112); assay: Binding to HRAS by surface plasmon resonance (SPR), Single Cycle Kinetics; details: SPR, GDP-bound HRAS wild-type vs GDP-bound KRAS wild-type
[2] = target: GDP-bound NRAS wild-type protein (Homo sapiens, UniProt P01111); assay: Binding to NRAS by surface plasmon resonance (SPR), Single Cycle Kinetics; details: SPR, GDP-bound NRAS wild-type vs GDP-bound KRAS wild-type
Chain of GDP-bound NRAS wild-type protein (P01111 whole entry): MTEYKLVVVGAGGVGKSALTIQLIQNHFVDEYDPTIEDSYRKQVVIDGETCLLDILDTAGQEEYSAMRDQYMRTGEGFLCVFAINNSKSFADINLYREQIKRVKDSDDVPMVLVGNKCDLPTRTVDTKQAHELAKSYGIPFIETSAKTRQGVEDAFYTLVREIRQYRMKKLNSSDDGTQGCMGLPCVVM

Chain of GDP-bound HRAS wild-type protein (P01112 whole entry): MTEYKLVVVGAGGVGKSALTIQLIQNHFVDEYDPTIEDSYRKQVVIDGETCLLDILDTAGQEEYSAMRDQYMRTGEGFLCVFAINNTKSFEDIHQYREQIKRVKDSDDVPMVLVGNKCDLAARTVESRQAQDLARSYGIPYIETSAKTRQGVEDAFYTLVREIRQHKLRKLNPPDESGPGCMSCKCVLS

| Compound | HRAS/KRAS (ratio of KD value with respect to HRAS to KD value with respect to KRAS) [1] | NRAS/KRAS (ratio of KD value with respect to NRAS to KD value with respect to KRAS) [2] |
| --- | --- | --- |
| CCO[C@@H]1C[C@H]2C(=O)NC3(CC(C)(C)C3)C(=O)N(C)[C@@H](C(CC)CC)C(=O)N(C)[C@H](C(=O)N(C)C)CC(=O)N(C)[C@@H](CC3CC3)C(=O)N[C@@H]([C@@H](C)CC)C(=O)N(C)CC(=O)N(C)[C@H]3C/C=C\CCN(C3=O)[C@@H](Cc3ccc(C)cc3)C(=O)N(C)CC(=O)N[C@@H](CCc3cc(F)c(C(F)(F)F)c(F)c3)C(=O)N2C1 [PP2137] | A (a compound having 10 or more and less than 20 is denoted as A) | A (a compound having 10 or more and less than 20 is denoted as A) |
| CCO[C@@H]1C[C@H]2C(=O)NC3(CC(C)(C)C3)C(=O)N(C)[C@@H](C(CC)CC)C(=O)N(C)[C@H](C(=O)N(C)C)CC(=O)N(C)[C@@H](CC3CCC3)C(=O)N[C@@H]([C@@H](C)CC)C(=O)N(C)CC(=O)N(C)[C@H]3C/C=C\CCN(C3=O)[C@@H](Cc3ccc(C(F)(F)F)cc3)C(=O)N(C)CC(=O)N[C@@H](CCc3ccc(C(F)(F)F)c(Cl)c3)C(=O)N2C1 [PP2138] | A (a compound having 10 or more and less than 20 is denoted as A) | A (a compound having 10 or more and less than 20 is denoted as A) |
| CCO[C@@H]1C[C@H]2C(=O)NC3(CC(C)(C)C3)C(=O)N(C)[C@@H](C(CC)CC)C(=O)N(C)[C@H](C(=O)N3CCCC3)CC(=O)N(C)[C@@H](COC)C(=O)N[C@@H]([C@@H](C)CC)C(=O)N(C)CC(=O)N(C)[C@H]3C/C=C\CCN(C3=O)[C@@H](Cc3ccc(C)cc3)C(=O)N(C)CC(=O)N[C@@H](CCc3cc(F)c(C(F)(F)F)c(F)c3)C(=O)N2C1 [PP2139] | A (a compound having 10 or more and less than 20 is denoted as A) | AA (a compound having 20 or more is denoted as AA) |
| CCO[C@@H]1C[C@H]2C(=O)NC3(CC(C)(C)C3)C(=O)N(C)[C@@H](C(CC)CC)C(=O)N(C)[C@H](C(=O)N(C)C)CC(=O)N(C)[C@@H](C(C)C)C(=O)N[C@@H]([C@@H](C)CC)C(=O)N(C)CC(=O)N(C)[C@H]3C/C=C\CCN(C3=O)[C@@H](Cc3ccc(C(F)(F)F)cc3)C(=O)N(C)CC(=O)N[C@@H](CCc3ccc(C(F)(F)F)c(Cl)c3)C(=O)N2C1 [PP2140] | A (a compound having 10 or more and less than 20 is denoted as A) | AA (a compound having 20 or more is denoted as AA) |
| CCO[C@@H]1C[C@H]2C(=O)NC3(CC(C)(C)C3)C(=O)N(C)[C@@H](C(CC)CC)C(=O)N(C)[C@H](C(=O)N(C)C)CC(=O)N(C)[C@@H](CC(C)C)C(=O)N[C@@H]([C@@H](C)CC)C(=O)N(C)CC(=O)N(C)[C@H]3C/C=C\CCN(C3=O)[C@@H](Cc3ccc(C)cc3)C(=O)N(C)CC(=O)N[C@@H](CCc3cc(F)c(C(F)(F)F)c(F)c3)C(=O)N2C1 [PP2141] | A (a compound having 10 or more and less than 20 is denoted as A) | A (a compound having 10 or more and less than 20 is denoted as A) |
| CCO[C@@H]1C[C@H]2C(=O)NC3(CC(C)(C)C3)C(=O)N(C)[C@@H](C(CC)CC)C(=O)N(C)[C@H](C(=O)N(C)C)CC(=O)N(C)[C@@H](CC3CC3)C(=O)N[C@@H]([C@@H](C)CC)C(=O)N(C)CC(=O)N(C)[C@H]3C/C=C\CCN(C3=O)[C@@H](Cc3ccc(C)cc3)C(=O)N(C)CC(=O)N[C@@H](CCc3ccc(C(F)(F)F)c(Cl)c3)C(=O)N2C1 [PP2142] | A (a compound having 10 or more and less than 20 is denoted as A) | AA (a compound having 20 or more is denoted as AA) |
| CCO[C@@H]1C[C@H]2C(=O)NC3(CC(C)(C)C3)C(=O)N(C)[C@@H](C(CC)CC)C(=O)N(C)[C@H](C(=O)N(C)C)CC(=O)N(C)[C@@H](C)C(=O)N[C@@H]([C@@H](C)CC)C(=O)N(C)CC(=O)N(C)[C@H]3C/C=C\CCN(C3=O)[C@@H](Cc3ccc(C)cc3)C(=O)N(C)CC(=O)N[C@@H](CCc3cc(F)c(C(F)(F)F)c(F)c3)C(=O)N2C1 [PP2143] | A (a compound having 10 or more and less than 20 is denoted as A) | A (a compound having 10 or more and less than 20 is denoted as A) |
| CCO[C@@H]1C[C@H]2C(=O)NC3(CC(C)(C)C3)C(=O)N(C)[C@@H](C(CC)CC)C(=O)N(C)[C@H](C(=O)N3CCCC3)CC(=O)N(C)[C@@H](COC)C(=O)N[C@@H]([C@@H](C)CC)C(=O)N(C)CC(=O)N(C)[C@H]3C/C=C\CCN(C3=O)[C@@H](Cc3ccc(C)cc3)C(=O)N(C)CC(=O)N[C@@H](CCc3ccc(C(F)(F)F)c(Cl)c3)C(=O)N2C1 [PP2144] | A (a compound having 10 or more and less than 20 is denoted as A) | AA (a compound having 20 or more is denoted as AA) |
| CCO[C@@H]1C[C@H]2C(=O)NC3(CC(C)(C)C3)C(=O)N(C)[C@@H](C(CC)CC)C(=O)N(C)[C@H](C(=O)N3CCCC3)CC(=O)N(C)[C@@H](C)C(=O)N[C@@H]([C@@H](C)CC)C(=O)N(C)CC(=O)N(C)[C@H]3C/C=C\CCN(C3=O)[C@@H](Cc3ccc(C)cc3)C(=O)N(C)CC(=O)N[C@@H](CCc3cc(F)c(C(F)(F)F)c(F)c3)C(=O)N2C1 [PP2145] | A (a compound having 10 or more and less than 20 is denoted as A) | A (a compound having 10 or more and less than 20 is denoted as A) |
| CCC[C@H]1C(=O)N[C@@H]([C@@H](C)CC)C(=O)N(C)CC(=O)N(C)[C@H]2C/C=C\CCN(C2=O)[C@@H](Cc2ccc(C)cc2)C(=O)N(C)CC(=O)N[C@@H](CCc2ccc(C(F)(F)F)c(Cl)c2)C(=O)N2C[C@H](OCC)C[C@H]2C(=O)NC2(CC(C)(C)C2)C(=O)N(C)[C@@H](C(CC)CC)C(=O)N(C)[C@H](C(=O)N(C)C)CC(=O)N1C [PP2146] | A (a compound having 10 or more and less than 20 is denoted as A) | A (a compound having 10 or more and less than 20 is denoted as A) |
| CCO[C@@H]1C[C@H]2C(=O)NC3(CC(C)(C)C3)C(=O)N(C)[C@@H](C(CC)CC)C(=O)N(C)[C@H](C(=O)N(C)C)CC(=O)N(C)[C@@H](CC)C(=O)N[C@@H]([C@@H](C)CC)C(=O)N(C)CC(=O)N(C)[C@H]3C/C=C\CCN(C3=O)[C@@H](Cc3ccc(C)cc3)C(=O)N(C)CC(=O)N[C@@H](CCc3cc(F)c(C(F)(F)F)c(F)c3)C(=O)N2C1 [PP2147] | B (a compound having 3 or more and less than 10 is denoted as B) | A (a compound having 10 or more and less than 20 is denoted as A) |
